From paper PMC3905878 (2013)

Assays:
[1] = system: Bsu A27C mutant (RNA, riboswitch, 5-aminoallyl-uridine at 13) AGAGGUUCUAGCUACACCCUCUAUAACAAACUAAGG; test: smFRET, fraction of high-FRET state; conditions: 100 mM KCl, 1 mM MgCl2; 50 mM Tris-HCl pH 7.5, room temperature; apparent
[2] = system: T. tengcongensis preQ1-I riboswitch 33-mer (RNA, riboswitch) CUGGGUCGCAGUAACCCCAGUUAACAAAACAAG; test: ITC; conditions: 100 mM NaCl, 6 mM MgCl2; 50 mM HEPES-NaOH pH 7.0, 25 °C; Table S3 prints 7.4 ± 2.3
[3] = system: Bsu preQ1 riboswitch (wild-type, smFRET construct) (RNA, riboswitch, 5-aminoallyl-uridine at 13) AGAGGUUCUAGCUACACCCUCUAUAAAAAACUAAGG; test: smFRET, fraction of high-FRET state; conditions: 100 mM KCl, 1 mM MgCl2; 50 mM Tris-HCl pH 7.5, room temperature; apparent; high-FRET saturates near 50%
[4] = system: Tte preQ1 riboswitch (wild-type, smFRET construct) (RNA, riboswitch, 5-aminoallyl-uridine at 12) CUGGGUCGCAGUAACCCCAGUUAACAAAACAAGGG; test: smFRET, fraction of high-FRET state; conditions: 100 mM KCl, 1 mM MgCl2; 50 mM Tris-HCl pH 7.5, room temperature; apparent; high-FRET saturates near 50%

K1/2 [1]: 11 µM
KD [2]: 7.3 ± 2.3 nM
K1/2 [3]: 134 ± 45 nM
K1/2 [4]: 69 ± 22 nM
SMILES: NCc1c[nH]c2nc(N)[nH]c(=O)c12
